{"source": "patent US20160115225A1", "about": "“Methods of Reducing Methylglyoxal (MGO) Modification of Recombinant Proteins in Cell Culture” (AbbVie Inc., priority 2014, published 2016)", "test_system": "adalimumab producing cell line 1", "experiment": "WCX-10 quantification of acidic species of adalimumab, bioreactor culture, cell line 1", "format": "cell-based", "description": "Two adalimumab producing cell lines were employed in the studies covered here. Upon thaw, cells were cultured in their respective growth media in a combination of vented non-baffled shake flasks (Corning) on a shaker platform at 110 RPM (cell line 1) and 140 RPM (cell line 2) and 10 L or 20 L wave bags (GE). Cultures were propagated in a 35° C., 5% CO2 incubator for cell line 1 and 36° C., 5% CO2 incubator for cell line 2 to obtain the required number of cells to be able to initiate production stage cultures. For the bioreactor (3 L Applikon) experiments (Examples 1, 2 and 3), 3 L, bioreactors (1.5 L working volume) were initiated at 35° C. (cell line 1) and 36° C. (cell line 2), 30% DO, 200 rpm, pH of 7.1. In some of the conditions, pH was ramped down to 6.8 in three days and kept at pH 6.8 thereafter. The inclusion of pH ramp for a particular condition is indicated by the final pH in the experimental design. If the final pH is 7.1, then it indicates no pH ramp was performed, whereas if the final pH is 6.8, a pH ramp was performed on day 3 from pH 7.1 to pH 6.8. In some of the conditions, a temperature shift was performed. When temperature shift was performed, the temperature was lowered to 33° C. Again, the conditions where such a temperature shift was performed can be identified from the final temperature in the experimental design. Cultures were run in extended batch mode with the addition of a desired amount of 40% glucose stock solution was fed based on glucose measurements. The harvest procedure of the reactors involved centrifugation of the culture sample at 3,000 RPM for 30 min and storage of supernatant in PETG bottles at −80° C. before submission for protein A purification, WCX-10 analysis and Lys-C peptide mapping. This method is employed towards the quantification of the acidic species and other charge variants present in cell culture harvest samples. Cation exchange chromatography was performed on a Dionex ProPac WCX-10, Analytical column (Dionex, Calif.). The mobile phases used were 10 mM Sodium Phosphate dibasic pH 7.5 (Mobile phase A) and 10 mM Sodium Phosphate dibasic, 500 mM Sodium Chloride pH 5.5 (Mobile phase B). A binary gradient (94% A, 6% B: […]; 84% A, 16% B: 20-22 min; 0% A, 100% B: 22-28 min; 94% A, 6% B: 28-34 min) was used with detection at 280 nm. Quantitation is based on the relative area percent of detected peaks. The peaks that elute at relative residence time earlier than the main peak corresponding to the drug product are together represented as the acidic peaks. Cell line 1 was cultured in IVGN production medium supplemented with or without 2DDG (0.25 g/l). Prior to this experiment, a study was performed in a shake flask culture to evaluate the dose effect of 2DDG on this cell line and optimize a dose range of reactor evaluation (data not shown). In this experiment, the cultures were performed in 3 L bioreactors in batch format (pH 7.1, DO—30%, 200 rpm) with only glucose feed as described in Example 1. Temperature shift was implemented in some tests (35° C. to 33° C. on day 5 of culture). Both 2DDG supplementation and temperature shift were employed as methods to reduce glucose consumption of the cells in culture. The hypothesis was that the reduction in glucose consumption will translate into reduced synthesis of MGO in cell culture. As a result, a reduction in MGO modification and acidic species of the protein would be achieved. In this experiment, the cultures were performed in 3 L bioreactors in batch format (DO—30%, 200 rpm) with only glucose feed as described in the materials and methods. The control condition was run at a constant temperature of 35° C., constant pH of 7.1 without any supplementation of 2DDG or arginine (condition #10). […]"}
{"smiles": "O=CC[C@@H](O)[C@H](O)[C@H](O)CO", "note": "[Test 2DDG, 2-Deoxy-D-Glucose]", "values": [{"measurement": "percentage of acidic species", "setting": "Example 2, 2DDG 0.25 g/l with temperature shift 35° C. to 33° C. on day 5, Day 10 harvest, control 26.6%", "value": 17.4, "unit": "%"}, {"measurement": "percentage of acidic species", "setting": "Example 2, 2DDG 0.25 g/l, no temperature shift, Day 10 harvest, control 26.6%", "value": 22.9, "unit": "%"}, {"measurement": "percentage of acidic species", "setting": "Example 3, 2DDG 0.25 g/l alone, day 11 harvest, control 68.4%", "value": 48.5, "unit": "%"}, {"measurement": "percentage of acidic species", "setting": "Example 3, 2DDG 0.25 g/l and temperature shift, day 11 harvest, control 68.4%", "value": 22.7, "unit": "%"}, {"measurement": "percentage of acidic species", "setting": "Example 3, 2DDG, temperature shift and arginine supplementation (4 g/l), day 11 harvest", "value": 12.6, "unit": "%"}, {"measurement": "percentage of acidic species", "setting": "Example 3, 2DDG, temperature shift and lower pH (6.8), day 11 harvest", "value": 15.2, "unit": "%"}, {"measurement": "percentage of acidic species", "setting": "Example 3, 2DDG, temperature shift, lower pH and arginine supplementation, day 11 harvest", "value": 12.0, "unit": "%"}]}
